{"source": "patent US4476122A", "about": "“Alkyloximes of 7-amino-thiazolyl-acetamido-cephalosporanic acids” (Roussel Uclaf, priority 1976, dated 1984)", "key": {"Escherichia Coli 19 976": {"system": "Escherichia Coli 19 976", "test": "MIC, liquid medium dilution", "format": "cell-based", "procedure": "(§1) The method used was a dilution of a liquid medium where a series of tubes received the same quantity of a sterile nutritive media and increasing doses of the test compounds were placed therein. Then each tube was seeded with a bacterial strain and was incubated for 24 or 48 hours at 37° C. in an oven. The increasing inhibition was determined by transillumination to determine the minimum inhibiting concentration (MIC in μg/ml) and the results are reported in the following Tables."}, "Escherichia Coli 21 976": {"system": "Escherichia Coli 21 976", "test": "MIC, liquid medium dilution", "format": "cell-based", "procedure": "as §1"}, "Escherichia Coli 68 696": {"system": "Escherichia Coli 68 696", "test": "MIC, liquid medium dilution", "format": "cell-based", "procedure": "as §1"}, "Escherichia Coli 68 956": {"system": "Escherichia Coli 68 956", "test": "MIC, liquid medium dilution", "format": "cell-based", "procedure": "as §1"}, "Escherichia Coli 69 886": {"system": "Escherichia Coli 69 886", "test": "MIC, liquid medium dilution", "format": "cell-based", "procedure": "as §1"}, "Escherichia Coli 69 916": {"system": "Escherichia Coli 69 916", "test": "MIC, liquid medium dilution", "format": "cell-based", "procedure": "as §1"}, "Escherichia Coli 72 806": {"system": "Escherichia Coli 72 806", "test": "MIC, liquid medium dilution", "format": "cell-based", "procedure": "as §1"}, "Escherichia Coli 73 316": {"system": "Escherichia Coli 73 316", "test": "MIC, liquid medium dilution", "format": "cell-based", "procedure": "as §1"}, "[1]": {"system": "Golden Staphylococcus 68 666", "test": "MIC, liquid medium dilution", "format": "cell-based", "procedure": "as §1"}, "[2]": {"system": "Pathogenic white Staphylococcus 69 396", "test": "MIC, liquid medium dilution", "format": "cell-based", "procedure": "as §1"}, "[3]": {"system": "White Staphylococcus 21 976", "test": "MIC, liquid medium dilution", "format": "cell-based", "procedure": "as §1"}, "[4]": {"system": "Klebsiella pneumonia 52,145", "test": "Experimental infection with Klebsiella pneumonia in mice (D)", "format": "in vivo", "procedure": "The activity of the products of Examples 19 and 21 was studied on an experimental infection of Klebsiella pneumonia in mice. Groups of 10 male mice weighing 21.5 g received intraperitoneally 0.5 ml of a 24 hour culture in nutritive media of Klebsiella pneumonia 52,145 diluted by 1/1000 with distilled water. The products were administered subcutaneously 1,5 and 24 hours after the injection and the number of dead mice were determined using 10th days."}, "[5]": {"test": "Hygroscopicity of the crystalline salt", "format": "physicochemical", "conditions": "microcrystalline sodium salt"}}, "note": "Like-named read-outs stand apart in the source and are kept apart here."}
{"compound": "CO/N=C(\\C(=O)NC1C(=O)N2C(C(=O)O)=C(CSC(C)=O)CSC12)c1csc(N)n1", "note": "(stereo not drawn) [Example 21, sodium 3-acetylthiomethyl-7-[{2-(2-amino-4-thiazolyl)-2-methoxyiminoacetyl}amino]-ceph-3-eme-4-carboxylate]", "values": [{"measurement": "MIC", "setting": "Escherichia Coli 19 976; COLI19976, 24 h, read-out: MIC", "result": 0.6, "unit": "µg/mL"}, {"measurement": "MIC", "setting": "Escherichia Coli 19 976; COLI19976, 48 h", "result": 0.6, "unit": "µg/mL"}, {"measurement": "MIC", "setting": "Escherichia Coli 21 976; COLI21976, 24 h, read-out: MIC", "result": 0.6, "unit": "µg/mL"}, {"measurement": "MIC", "setting": "Escherichia Coli 21 976; COLI21976, 48 h", "result": 0.6, "unit": "µg/mL"}, {"measurement": "MIC", "setting": "Escherichia Coli 68 696; COLI68696, 24 h", "result": 0.4, "unit": "µg/mL"}, {"measurement": "MIC", "setting": "Escherichia Coli 68 696; COLI68696, 48 h", "result": 0.4, "unit": "µg/mL"}, {"measurement": "MIC", "setting": "Escherichia Coli 68 956; COLI68956, 24 h", "result": 0.4, "unit": "µg/mL"}, {"measurement": "MIC", "setting": "Escherichia Coli 68 956; COLI68956, 48 h", "result": 0.4, "unit": "µg/mL"}, {"measurement": "MIC", "setting": "Escherichia Coli 69 886; COLI69886, 24 h, read-out: MIC", "result": 0.6, "unit": "µg/mL"}, {"measurement": "MIC", "setting": "Escherichia Coli 69 886; COLI69886, 48 h", "result": 1, "unit": "µg/mL"}, {"measurement": "MIC", "setting": "Escherichia Coli 69 916; COLI69916, 24 h", "result": 0.4, "unit": "µg/mL"}, {"measurement": "MIC", "setting": "Escherichia Coli 69 916; COLI69916, 48 h", "result": 0.4, "unit": "µg/mL"}, {"measurement": "MIC", "setting": "Escherichia Coli 72 806; COLI72806, 24 h", "result": 1, "unit": "µg/mL"}, {"measurement": "MIC", "setting": "Escherichia Coli 72 806; COLI72806, 48 h", "result": 1, "unit": "µg/mL"}, {"measurement": "MIC", "setting": "Escherichia Coli 73 316; COLI73316, 24 h", "result": 0.2, "unit": "µg/mL"}, {"measurement": "MIC", "setting": "Escherichia Coli 73 316; COLI73316, 48 h", "result": 0.2, "unit": "µg/mL"}, {"measurement": "MIC", "setting": "[1]; 24 h", "result": 3, "unit": "µg/mL"}, {"measurement": "MIC", "setting": "[1]; 48 h", "result": 5, "unit": "µg/mL"}, {"measurement": "MIC", "setting": "[2]; 24 h", "result": 2, "unit": "µg/mL"}, {"measurement": "MIC", "setting": "[2]; 48 h", "result": 2, "unit": "µg/mL"}, {"measurement": "MIC", "setting": "[3]; 24 h", "result": 3, "unit": "µg/mL"}, {"measurement": "MIC", "setting": "[3]; 48 h", "result": 5, "unit": "µg/mL"}, {"measurement": "Mice alive on the 10th day", "setting": "[4]; subcutaneous, 0,1 mg", "result": "9/10"}, {"measurement": "Mortality after 4eJ (number of dead of 10)", "setting": "[4]; subcutaneous, 0,1 mg", "result": 1}, {"measurement": "Mice alive on the 10th day", "setting": "[4]; subcutaneous, 0,05 mg", "result": "9/10"}, {"measurement": "Mortality after 73H 15 (number of dead of 10)", "setting": "[4]; subcutaneous, 0,05 mg", "result": 1}, {"measurement": "Mice alive on the 10th day", "setting": "[4]; subcutaneous, 0,5 mg", "result": "10/10"}, {"measurement": "Mice alive on the 10th day", "setting": "[4]; subcutaneous, 0,25 mg", "result": "10/10"}, {"measurement": "Mice alive on the 10th day", "setting": "[4]; subcutaneous, 1 mg", "result": "10/10"}]}
{"compound": "CO/N=C(\\C(=O)NC1C(=O)N2C(C(=O)O)=C(CSC(C)=O)CSC12)c1csc(N)n1", "note": "(stereo not drawn) [Example 22, sodium 3-acetylthiomethyl-7-[{2-(2-amino-4-thiazolyl)-2-methoxyiminoacetyl}amino]-ceph-3-eme-4-carboxylate]", "values": [{"measurement": "hygroscopicity", "setting": "[5]", "result": "non-hydroscopic"}]}
